Key:
Test in all cases: relative viability (nuclei count vs DMSO), 5 days (fraction); higher = more cells survive
[1] = compound: CN(C)C[C@@H]1CCn2cc(c3ccccc32)C2=C(C(=O)NC2=O)c2cn(c3ccccc23)CCO1 [Ruboxistaurin] + CS(=O)(=O)CCNCc1ccc(-c2ccc3ncnc(Nc4ccc(OCc5cccc(F)c5)c(Cl)c4)c3c2)o1 [Lapatinib] (partner 2 µM)
How it was run: (§1)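 Lung cancer cell lines, seeded in 1536-well plates, were treated the following day by pin tool with a single drug or with five library-drug doses (not always all listed) in √10 steps on top of a fixed anchor-drug dose. Cells were fixed and nuclei stained in one step after 5 days, and nuclei were counted. Relative viability is the nuclei count for treated wells divided by that for vehicle wells, reported as medians of duplicate plates.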

[2] = compound: CN(C)C[C@@H]1CCn2cc(c3ccccc32)C2=C(C(=O)NC2=O)c2cn(c3ccccc23)CCO1 [Ruboxistaurin] + COc1cc2c(Oc3ccc(NC(=O)C4(C(=O)Nc5ccc(F)cc5)CC4)cc3F)ccnc2cc1OCCCN1CCOCC1 [Foretinib] (partner 0.25 µM)
How it was run: as §1

[3] = compound: CN(C)C[C@@H]1CCn2cc(c3ccccc32)C2=C(C(=O)NC2=O)c2cn(c3ccccc23)CCO1 [Ruboxistaurin] + CC(=O)Nc1cccc(-n2c(=O)n(C3CC3)c(=O)c3c(Nc4ccc(I)cc4F)n(C)c(=O)c(C)c32)c1 [Trametinib] (partner 0.02 µM)
How it was run: as §1

[4] = compound: CN(C)C[C@@H]1CCn2cc(c3ccccc32)C2=C(C(=O)NC2=O)c2cn(c3ccccc23)CCO1 [Ruboxistaurin] + Cc1nc(Nc2ncc(C(=O)Nc3c(C)cccc3Cl)s2)cc(N2CCN(CCO)CC2)n1 [Dasatinib] (partner 0.075 µM)
How it was run: as §1

[5] = compound: CN(C)C[C@@H]1CCn2cc(c3ccccc32)C2=C(C(=O)NC2=O)c2cn(c3ccccc23)CCO1 [Ruboxistaurin] + CC1(C)CCC(c2ccc(Cl)cc2)=C(CN2CCN(c3ccc(C(=O)NS(=O)(=O)c4ccc(N[C@H](CCN5CCOCC5)CSc5ccccc5)c(S(=O)(=O)C(F)(F)F)c4)cc3)CC2)C1 [Navitoclax] (partner 0.5 µM)
How it was run: as §1

Row | Cell Line | relative viability ([1]; first compound 0.08 µM) | relative viability ([1]; first compound 0.8 µM) | relative viability ([1]; first compound 2.53 µM) | relative viability ([1]; first compound 8 µM) | relative viability ([2]; first compound 0.08 µM) | relative viability ([2]; first compound 0.8 µM) | relative viability ([2]; first compound 2.53 µM) | relative viability ([2]; first compound 8 µM) | relative viability ([3]; first compound 0.08 µM) | relative viability ([3]; first compound 0.8 µM) | relative viability ([3]; first compound 2.53 µM) | relative viability ([3]; first compound 8 µM) | relative viability ([4]; first compound 0.08 µM) | relative viability ([4]; first compound 0.8 µM) | relative viability ([4]; first compound 2.53 µM) | relative viability ([4]; first compound 8 µM) | relative viability ([5]; first compound 0.08 µM) | relative viability ([5]; first compound 0.8 µM) | relative viability ([5]; first compound 2.53 µM) | relative viability ([5]; first compound 8 µM)
1 | NCI-H2405 | 1.3 | 1.01 | 1.19 | 1.05 | 1.07 | 0.961 | 0.998 | 1.01 | 0.727 | 0.597 | 0.727 | 0.616 | 0.184 | 0.239 | 0.174 | 0.222 | 1.09 | 0.654 | 0.917 | 0.963
2 | NCI-H3122 | 1.02 | 1.02 | 1 | 1.08 | 0.938 | 0.982 | 1.01 | 0.975 | 0.241 | 0.179 | 0.227 | 0.232 | 0.953 | 0.922 | 0.753 | 0.96 | 1.02 | 0.919 | 1 | 1.09
3 | PC-3 [JPC-3] | 0.428 | 0.417 | 0.44 | 0.391 | 1.06 | 1.03 | 1.02 | 1.09 | 0.821 | 0.653 | 0.715 | 0.685 | 1 | 0.97 | 0.967 | 0.944 | 0.89 | 0.757 | 0.813 | 0.829
4 | PC-14 | 0.353 | 0.311 | 0.302 | 0.294 | 1.01 | 0.87 | 1 | 0.984 | 1.05 | 0.667 | 0.73 | 0.527 | 0.269 | 0.221 | 0.281 | 0.0895 | 1.03 | 0.988 | 1.02 | 1.08
5 | RERF-LC-KJ | 0.905 | 0.837 | 0.781 | 0.77 | 0.879 | 0.777 | 0.864 | 0.869 | 0.932 | 0.867 | 0.836 | 0.857 | 0.847 | 0.608 | 0.833 | 0.652 | 1.36 | 0.977 | 0.881 | 0.833
6 | SK-LU-1 | 0.937 | 0.785 | 0.996 | 0.969 | 0.93 | 0.809 | 0.772 | 0.683 | 0.575 | 0.418 | 0.717 | 0.422 | 0.195 | 0.145 | 0.163 | 0.169 | 0.843 | 0.857 | 0.949 | 0.829
7 | SK-MES-1 | 0.515 | 0.413 | 0.5 | 0.425 | 1.08 | 0.791 | 0.969 | 0.858 | 0.629 | 0.508 | 0.492 | 0.442 | 0.395 | 0.308 | 0.329 | 0.339 | 1.35 | 1.15 | 1.4 | 1.09
8 | SW 1573 | 1.1 | 1.12 | 1.18 | 1.03 | 1.15 | 0.866 | 1.03 | 0.762 | 0.527 | 0.491 | 0.549 | 0.516 | 0.52 | 0.331 | 0.452 | 0.456 | 0.978 | 0.791 | 1.01 | 0.854
9 | UMC-11 | 1.03 | 0.844 | 0.875 | 0.644 | 1.05 | 0.951 | 0.904 | 0.646 | 0.766 | 0.623 | 0.649 | 0.577 | 0.481 | 0.455 | 0.429 | 0.434 | 0.312 | 0.28 | 0.294 | 0.248

Source: the supplement of paper PMC10307832
